Measured values from patent publication US20250129055A1, “GLUCOSIDE DERIVATIVE, AND PREPARATION METHOD THEREFOR AND APPLICATION THEREOF” (BEIJING INCREASE INNOVATIVE DRUG CO., LTD., priority 2020, published 2025).
Marks after values point to notes of the source that are not given here.

Experiments:
[1] = system: Alloxan diabetic mice; assay: Efficacy in Alloxan diabetes model mice; assay type: in vivo
Method: Test Example 3 Research on efficacy of the compounds of the present invention in in vivo anti-Alloxan diabetes model mice
Alloxan diabetes mice were used. Normal ICR mice (male, 22-24 g) were randomly divided into groups including normal group, model group (con), positive control group and test compound groups with four different doses (n=11), and the mice without injection of Alloxan were in a normal control group (n=10).
(§1) Mice were administered with drugs by gavage.
Single administration: Mice were fasted for 3 h, and then the fasting blood (0 min) was collected. Then the mice in each group were administered with drugs by gavage. After 1 h, they were administered with a glucose ([…]) solution. Blood was collected at 30 min, 60 min, 120 min, and 180 min after the glucose administration. The blood glucose level was measured using glucose oxidase-peroxidase method, and the area under the blood glucose curve was calculated.
On the 6th day of continuous administration, under the condition of no fasting, blood samples were collected from mice before administration (0 h), 1 h, 2 h, 4 h, 8 h and 24 h after administration to measure blood glucose.
On the 9th day of continuous administration, the mice were fasted for 1 h and then administered with drugs by gavage. An oral glucose tolerance test (OGTT) was performed 1 h after administration.
On the 16th day of continuous administration, under the condition of no fasting, urine samples were collected from mice 1 h after administration to measure the concentration of urine glucose.
On the 22nd day of continuous administration, the mice were fasted for 1 h and then administered with drugs by gavage, and blood samples were collected to measure the fasting blood glucose 1 h after administration.
On the 28th day of continuous administration, under the condition of no fasting, blood samples were collected from mice 1 h after administration to measure the random blood glucose.
On the 32nd day of continuous administration, under the condition of no fasting, blood samples were collected from mice to measure glycosylated hemoglobin (HbA1c).
The data were expressed as mean±SEM (n=10-11). The comparison between multiple groups was performed by one-way analysis of variance, and the comparison between two groups was performed by Dunnett's t test. Statistical graphing was performed using Graphpad Prism software.

[2] = system: spontaneous type 2 diabetes mellitus db/db mice; assay: Pharmacodynamic effect on spontaneous type 2 diabetes mellitus db/db mice; assay type: in vivo
Method: Test example 4 Pharmacodynamic effect of the compounds of the present invention on spontaneous type 2 diabetes mellitus db/db mice
Spontaneous type 2 diabetes mellitus db/db mice and the normal control db/m mice (male, 5-6 weeks old) were used. The db/db mice were randomly divide into […] based on random blood glucose, fasting blood glucose, percentage of blood glucose reduction at 40 min, blood triglycerides, total blood cholesterol, and body weight, which were model group (con), positive control group and three groups of test compound with different doses (n=10).
as §1
The mice were fasted for 2 h, and then the 0 h (fasting) blood samples were collected. Then the mice in each group were administered with drugs by gavage, and blood samples were collected at 1 h, 2 h, 4 h, 6 h, 8 h and 24 h after administration. The blood glucose level was measured using glucose oxidase-peroxidase method, and the area under the blood glucose curve was calculated. Moreover, urine samples were collected 2 h and 4 h after administration to determine the concentration of urine glucose.
On the 15th day of continuous administration, before the mice were fasted, blood samples were collected to measure the random blood glucose. Then the mice were fasted and administered with the compounds, and after 2 h, blood samples were collected to measure the fasting blood glucose. […]
The data were expressed as mean±SEM (n=10). The comparison between multiple groups was performed by one-way analysis of variance, and the comparison between two groups was performed by Dunnett's t test. Statistical graphing was performed using Graphpad Prism software.

CCOc1ccc(Cc2cc([C@@H]3O[C@H](CO)[C@@H](O)[C@H](O)[C@H]3O)ccc2Cl)cc1 [Dapagliflozin, reference compound]
Concentration of fasting blood glucose, the 9th day ([1]; 2.0 mg/kg, 9th day): 256.7 ± 14.4 mg/dL | Concentration of fasting blood glucose, the 22nd day ([1]; 2.0 mg/kg, 22nd day): 316.5 ± 18.6 mg/dL | HbA1c ([1]; 2.0 mg/kg, 32nd day): 6.6 ± 0.5% | AUC of blood glucose ([1]; 2.0 mg/kg, OGTT on the 9th day): 463.3 ± 28.0 mg·h/dL | Concentration of blood glucose 0 min ([1]; 2.0 mg/kg, OGTT on the 9th day, 0 min): 256.7 ± 14.4 mg/dL | Concentration of blood glucose 30 min ([1]; 2.0 mg/kg, OGTT on the 9th day, 30 min): 278.3 ± 17.6 mg/dL | Concentration of blood glucose 60 min ([1]; 2.0 mg/kg, OGTT on the 9th day, 60 min): 227.3 ± 13.5 mg/dL | Concentration of blood glucose 120 min ([1]; 2.0 mg/kg, OGTT on the 9th day, 120 min): 178.9 ± 20.8 mg/dL | AUC of blood glucose ([1]; 2.0 mg/kg, non-fasting, 6th day, 0-24 h): 13216 ± 440.8 mg·h/dL | Concentration of blood glucose 1 h ([1]; 2.0 mg/kg, non-fasting, 6th day, 1 h after administration): 433.7 ± 19.5 mg/dL | Concentration of blood glucose 2 h ([1]; 2.0 mg/kg, non-fasting, 6th day, 2 h after administration): 425.1 ± 22.5 mg/dL | Concentration of blood glucose 4 h ([1]; 2.0 mg/kg, non-fasting, 6th day, 4 h after administration): 343.1 ± 17.8 mg/dL | Concentration of blood glucose 8 h ([1]; 2.0 mg/kg, non-fasting, 6th day, 8 h after administration): 522.7 ± 34.0 mg/dL | Concentration of blood glucose 24 h ([1]; 2.0 mg/kg, non-fasting, 6th day, 24 h after administration): 697.7 ± 17.6 ^ mg/dl | Concentration of blood glucose 0 h ([1]; 2.0 mg/kg, non-fasting, 6th day, before administration): 614.3 ± 9.6 ^ mg/dl | Concentration of blood glucose (random) ([1]; 2.0 mg/kg, random blood glucose on the 28th day): 499.3 ± 13.0 mg/dL | Duration of hypoglycemic effect ([1]; 6th day, dapagliflozin 2.0 mg/kg, Compound 2 0.25-2.0 mg/kg): no significant effect after 24 h | AUC of blood glucose ([2]; 2.0 mg/kg single administration, 0-24 h): 8866 ± 361.1***^ mg/dl · h | Concentration of blood glucose 0 h ([2]; 2.0 mg/kg single administration, fasting, 0 h before administration): 488.5 ± 29.2 mg/dL | Concentration of blood glucose 1 h ([2]; 2.0 mg/kg single administration, fasting, 1 h): 386.4 ± 16.5 mg/dL | Concentration of blood glucose 2 h ([2]; 2.0 mg/kg single administration, fasting, 2 h): 333.8 ± 13.9 mg/dL | Concentration of blood glucose 4 h ([2]; 2.0 mg/kg single administration, fasting, 4 h): 265.8 ± 9.1 mg/dL | Concentration of blood glucose 6 h ([2]; 2.0 mg/kg single administration, fasting, 6 h): 209.3 ± 8.0 ^ mg/dl | Concentration of blood glucose 8 h ([2]; 2.0 mg/kg single administration, fasting, 8 h): 176.7 ± 10.2 mg/dL | Concentration of blood glucose 24 h ([2]; 2.0 mg/kg single administration, fasting, 24 h): 649.4 ± 40.0 mg/dL | Fasting blood glucose, the 15th day ([2]; 2.0 mg/kg, 15th day): 183.0 ± 11.2 mg/dL | Random blood glucose, the 15th day ([2]; 2.0 mg/kg, 15th day): 344.7 ± 24.1 mg/dL | Fasting blood glucose, the 22nd day ([2]; 2.0 mg/kg, 22nd day): 191.8 ± 11.0 mg/dL | HbA1c ([2]; 2.0 mg/kg, 28th day): 5.1 ± 0.3 % | Random blood glucose, the 22nd day (title: 28th day) ([2]; 2.0 mg/kg, column head 22nd day, title 28th day): 317.0 ± 16.4 mg/dL
